Assay type in all cases: cell-based
In assay [1] the target is T1, Muscarinic acetylcholine receptor M4 (Homo sapiens) (UniProt P08173).
T1 sequence (whole entry): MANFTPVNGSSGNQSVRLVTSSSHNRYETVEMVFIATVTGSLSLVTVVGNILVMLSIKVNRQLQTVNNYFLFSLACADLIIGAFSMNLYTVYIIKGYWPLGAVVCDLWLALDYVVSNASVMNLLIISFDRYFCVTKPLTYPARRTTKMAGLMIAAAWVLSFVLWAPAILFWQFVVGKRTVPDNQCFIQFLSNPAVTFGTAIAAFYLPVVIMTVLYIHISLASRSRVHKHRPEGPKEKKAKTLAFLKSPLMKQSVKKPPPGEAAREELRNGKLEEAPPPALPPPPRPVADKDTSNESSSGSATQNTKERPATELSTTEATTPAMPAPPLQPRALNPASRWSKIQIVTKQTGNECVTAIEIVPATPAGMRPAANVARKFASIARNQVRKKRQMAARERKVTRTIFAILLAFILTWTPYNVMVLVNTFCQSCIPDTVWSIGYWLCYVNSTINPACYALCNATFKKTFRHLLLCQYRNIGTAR
The assay can be described thus: Allosteric modulation of human M4 mAChR expressed in FIpIn-CHO cells assessed as ERK1/2 phosphorylation after 6 mins by Alphascreen assay in the presence of ACh.

In assay [2] the target is T1, Muscarinic acetylcholine receptor M4 (Homo sapiens). The assay is described as follows: Intrinsic activity at human M4 mAChR expressed in FIpIn-CHO cells assessed as ERK1/2 phosphorylation after 6 mins by Alphascreen assay in the presence of ACh.
For assay [3] the target is unchanged. The assay can be described thus: Allosteric modulation of human M4 mAChR expressed in FIpIn-CHO cells assessed as ERK1/2 phosphorylation measured overall cooperativity after 6 mins by Alphascreen assay.
Assay [4] addresses T2, Muscarinic acetylcholine receptor M4 (Homo sapiens, UniProt P08173).
T2 sequence (P08173 whole entry): T1 sequence (whole entry)
The assay is described as follows: Displacement of [3H]NMS from human M4 mAChR expressed in FIpIn-CHO cells after 4 hrs by scintillation counting method in the presence of ACh.

The target of assay [5] is T1, Muscarinic acetylcholine receptor M4 (Homo sapiens). The assay is described as follows: Displacement of [3H]NMS from human M4 mAChR expressed in FIpIn-CHO cells assessed as ligand affinity after 4 hrs by scintillation counting method in the presence of ACh.

The values that follow come from ChEMBL document CHEMBL3769348, “A structureactivity relationship study of the positive allosteric modulator LY2033298 at the M4muscarinic acetylcholine receptor” (Medchemcomm, 2015).

Active and inactive are the calls of the source. The calls are words filed in the database; no cut-off is given here.

As to `CCCCCC(=O)Nc1c(C(=O)NC2CC2)sc2nc(OC)c(Cl)c(C)c12`, in assay [1], the Kb result was “inactive” and the pKb result was “inactive”. Moreover, in assay [2], the Intrinsic activity result was “inactive” and the “log(IA)” value is “inactive”. In addition, in assay [3], the outcome was inactive and the “log(activity)” value is “inactive”.

With `CCCCOc1nc2sc(C(=O)NC3CC3)c(N)c2c(C)c1Cl`, in assay [1], the Kb stood at 200 nM and the pKb amounted to 6.81. Also, in assay [2], the Intrinsic activity is 0.3 and the log(IA) was -0.51. For the same molecule, in assay [3], the Activity worked out at 2.5 and the log(activity) was found to be 0.4. In addition, in assay [4], the Ki is 2700 nM. Also, in assay [5], the Activity amounted to 22.4 and the log(activity) came to 1.35.

With `Cc1nc2sc(C(=O)NC3CC3)c(N)c2c(C)c1Cl`, in assay [1], the Kb was 400 nM and the negative-log Kb (pKb) is 6.45. Also, in assay [2], the Intrinsic activity worked out at 12.9 and the log(IA) was 1.11. Also, in assay [3], the Activity came to 77.6 and the log(activity) amounted to 1.89.

On to `COc1cc(C)c2c(N)c(C(=O)NC3CC3)sc2n1`, for which, in assay [1], the Kb came out at 2800 nM and the negative-log Kb (pKb) amounted to 5.55. Also, in assay [2], the Intrinsic activity was determined as 4.6 and the log(IA) turned out to be 0.66. In assay [3], the Activity came out at 28.8 and the log(activity) was 1.46.

In the case of `COc1nc2sc(C(=O)NC3CC3)c(N)c2c(C)c1Br`, in assay [1], the Kb worked out at 300 nM and the pKb stood at 6.52. In assay [2], the Intrinsic activity was found to be 17.8 and the log(IA) came out at 1.25. Also, in assay [3], the Activity was determined as 81.3 and the log(activity) amounted to 1.91. Besides, the Ki in assay [4] was determined as 520 nM. In addition, in assay [5], the Activity is 347 and the log(activity) came to 2.54.

With `CCOc1nc2sc(C(=O)NC3CC3)c(N)c2c(C)c1Cl`, in assay [1], the Kb turned out to be 800 nM and the negative-log Kb (pKb) turned out to be 6.1. Moreover, in assay [2], the Intrinsic activity was determined as 9.3 and the log(IA) was found to be 0.97. For the same molecule, in assay [3], the Activity was 61.7 and the log(activity) is 1.79. For the same molecule, the Ki in assay [4] was 200 nM. Also, in assay [5], the Activity turned out to be 95.5 and the log(activity) is 1.98.

As for `CCCCNC(=O)c1sc2nc(OC)c(Cl)c(C)c2c1N`, in assay [1], the Kb amounted to 500 nM and the pKb was determined as 6.29. For the same molecule, in assay [2], the Intrinsic activity stood at 2.8 and the log(IA) amounted to 0.44. For the same molecule, in assay [3], the Activity was determined as 15.5 and the log(activity) came to 1.19. Besides, the inhibition constant (Ki) in assay [4] was determined as 3200 nM. Besides, in assay [5], the Activity was found to be 123 and the log(activity) turned out to be 2.09.

For the molecule `COc1nc2sc(C(=O)NC3CC3)c(N)c2c(C)c1I`, in assay [1], the Kb is 200 nM and the pKb was found to be 6.66. Also, in assay [2], the Intrinsic activity worked out at 2.3 and the log(IA) is 0.37. In addition, in assay [3], the Activity came to 9.3 and the log(activity) was found to be 0.97. Further, the Ki in assay [4] is 1700 nM. In assay [5], the Activity amounted to 269 and the log(activity) stood at 2.43.

As for `CCCCCCNC(=O)c1sc2nc(OC)c(Cl)c(C)c2c1N`, in assay [1], the Kb was 200 nM and the negative logarithm of the Kb (pKb) amounted to 6.7. In assay [2], the Intrinsic activity came to 0.4 and the log(IA) was -0.35. Besides, in assay [3], the Activity was determined as 1.3 and the log(activity) is 0.13.

Consider `COc1nc2sc(C(=O)NC3CC3)c(N)c2c(C)c1Cl`, for which, in assay [1], the Kb was found to be 400 nM and the negative logarithm of the Kb (pKb) was found to be 6.41. For the same molecule, in assay [2], the Intrinsic activity came to 8.5 and the log(IA) was 0.93. In addition, in assay [3], the Activity worked out at 240 and the log(activity) is 2.38. Moreover, the inhibitory constant (Ki) in assay [4] worked out at 400 nM. Moreover, in assay [5], the Activity was found to be 1740 and the log(activity) stood at 3.24.

As for `Cc1nc(C)c2c(N)c(C(=O)NC3CC3)sc2n1`, in assay [1], the Kb turned out to be 12500 nM and the pKb is 4.9. In addition, in assay [2], the Intrinsic activity was determined as 3.1 and the log(IA) came to 0.49. Moreover, in assay [3], the Activity came to 14.1 and the log(activity) stood at 1.15.

For `CCCCCCOc1nc2sc(C(=O)NC3CC3)c(N)c2c(C)c1Cl`, in assay [1], the Kb worked out at 40 nM and the pKb amounted to 7.42. Further, in assay [2], the Intrinsic activity stood at 0.2 and the log(IA) is -0.75. In addition, in assay [3], the Activity came out at 2 and the log(activity) turned out to be 0.3.

On to `CCNC(=O)c1sc2nc(OC)c(Cl)c(C)c2c1N`, for which, in assay [1], the Kb was determined as 200 nM and the negative-log Kb (pKb) was 6.73. For the same molecule, in assay [2], the Intrinsic activity turned out to be 8.7 and the log(IA) turned out to be 0.94. Besides, in assay [3], the Activity was determined as 69.2 and the log(activity) turned out to be 1.84. In addition, in assay [4], the Ki was 4300 nM. Also, in assay [5], the Activity amounted to 562 and the log(activity) amounted to 2.75.

In the case of `Cc1cc(C)c2c(N)c(C(=O)NC3CC3)sc2n1`, in assay [2], the Intrinsic activity was determined as 5.9 and the log(IA) turned out to be 0.77. In addition, in assay [3], the Activity was 52.5 and the log(activity) was 1.72.

With `COc1nc2sc(C(=O)NC3CC3)c(NC(C)=O)c2c(C)c1Cl`, in assay [1], the Kb entry is “inactive” and the pKb result was “inactive”. In addition, in assay [2], the Intrinsic activity result was “inactive” and the “log(IA)” value is “inactive”. In assay [3], the outcome was inactive and the “log(activity)” value was “inactive”.

On to `CCCC(=O)Nc1c(C(=O)NC2CC2)sc2nc(OC)c(Cl)c(C)c12`, for which, in assay [1], the Kb entry was “inactive” and the pKb entry was “inactive”. In addition, in assay [2], the Intrinsic activity entry is “inactive” and the “log(IA)” value is “inactive”. Moreover, in assay [3], the outcome was inactive and the “log(activity)” value was “inactive”.
